Data reported in patent US7132437B2, “Renal-selective biphenylalkyl 1H-substituted-1,2,4-triazole angiotensin II antagonists for treatment of hypertension” (G.D. Searle, priority 1990, dated 2006).
Values belong to the molecule of their own block, whether it stands above or below them.

Experiments:
[1] = target: T1, smooth muscle angiotensin II receptor; assay: Assay A: Angiotensin II Binding Activity; conditions: rat uterine membrane preparation, displacement of 125I-AII
T1 construct: Rat uterine membranes were prepared from fresh tissue
Protocol: Assay A: Angiotensin II Binding Activity
Compounds of Formula I were tested for ability to bind to the smooth muscle angiotensin II receptor using a rat uterine membrane preparation. […] Other chemicals were obtained from Sigma Chemical Co. This assay was carried out according to the method of Douglas et al [Endocrinology, 106, 120–124 (1980)]. Rat uterine membranes were prepared from fresh tissue. All procedures were carried out at 4° C. Uteri were stripped of fat and homogenized in phosphate-buffered saline at pH 7.4 containing 5 mM EDTA. The homogenate was centrifuged at 1500×g for 20 min., and the supernatant was recentrifuged at 100,000×g for 60 min. The pellet was resuspended in buffer consisting of 2 mM EDTA and 50 mM Tris-HCl (pH 7.5) to a final protein concentration of 4 mg/ml. […] The reaction was initiated by the addition of membrane protein and the mixture was incubated at 25° C. for 60 min. The incubation was terminated with ice-cold 50 mM Tris-HCl (pH 7.5) and the mixture was filtered to separate membrane-bound labelled peptide from the free ligand. The incubation tube and filter were washed with ice-cold buffer. Filters were assayed for radioactivity in a Micromedic gamma counter. Nonspecific binding was defined as binding in the presence of 10 μM of unlabelled AII. Specific binding was calculated as total binding minus nonspecific binding. […] Binding data were analyzed by a nonlinear least-squares curve fitting program.

[2] = tested on: rabbit aortic rings; assay: Assay B: In Vitro Vascular Smooth Muscle Response for AII; type: cell-based; conditions: antagonist at 10^-5 M, two values per cell = aorta rings from two rabbits; for Kb: Oryctolagus cuniculus, read-out: Assay B pA2 (converted)
Protocol: Assay B: In Vitro Vascular Smooth Muscle-Response for ATT
Compounds of Formula I were tested for antagonist activity in rabbit aortic rings. Male New Zealand white rabbits (2–2.5 kg) were sacrificed using an overdose of pentobarbital and exsanguinated via the carotid arteries. The thoracic aorta was removed, cleaned of adherent fat and connective tissue and then cut into 3-mm ring segments. The endothelium was removed from the rings by gently sliding a rolled-up piece of filter paper into the vessel lumen. The rings were then mounted in a water-jacketed tissue bath, maintained at 37° C., between moveable and fixed ends of a stainless steel wire with the moveable end attached to an FT03 Grass transducer coupled to a Model 7D Grass Polygraph for recording isometric force responses. The bath was filled with 20 ml of oxygenated (95% oxygen/5% carbon dioxide) Krebs solution of the following composition […]: 130 NaCl, 15 NaHCO3, 15 KCl, 1.2 NaH2PO4, 1.2 MgSO4, 2.5 CaCl2, and 11.4 glucose. The preparations were equilibrated for one hour before approximately one gram of passive tension was placed on the rings. Angiotensin II concentration-response curves were then recorded (3×10^−10 to 1×10–5 M). Each concentration of AII was allowed to elicit its maximal contraction, and then AII was washed out repeatedly for 30 minutes before rechallenging with a higher concentration of AII. Aorta rings were exposed to the test antagonist at 10^−5 M for 5 minutes before challenging with AII. Adjacent segments of the same aorta ring were used for all concentration-response curves in the presence or absence of the test antagonist. The effectiveness of the test compound was expressed in terms of pA2 values and were calculated according to H. O. Schild [Br. J. Pharmacol. Chemother., 2, 189–206 (1947)]. […] Each test antagonist was evaluated in aorta rings from two rabbits.

[3] = tested on: spontaneously hypertensive rats (SHR); assay: Assay D: In Vivo Effects of Chronic Infusion of Conjugate (mean arterial pressure, heart rate); parameters: species or system rat; conditions: 10 mg/hr i.v. infusion
Protocol: Assay D: In Vivo Effects of Chronic Infusion of Conjugate of the Invention
(§1) This in vivo experiment was conducted to characterize the effects of the Example 79 conjugate on spontaneously hypertensive rats (SHR) by acute administration i.v. and by chronic administration i.v. The […] compound or saline vehicle was infused continuously for four days in SHR. Mean arterial pressure was measured (Gould Chart Recorder, model 3800; Statham P23 Db pressure transducer) via an indwelling femoral artery catheter between 10:00 a.m. and 2:00 P.M. each day. The Example 79 conjugate (10 mg/hr) or saline was infused via a jugular vein catheter with a Harvard infusion pump. […] A test was conducted to determine whether the Example 79 conjugate would antagonize non-renal, vascular angiotensin II receptors. In this test AII was administered by bolus injection (100 ng/kg) to the SHR rats (described above) on the control day and on days 1, 3 and 4 during conjugate infusion.

[4] = target: T2, non-renal, vascular angiotensin II receptors (Rattus norvegicus, UniProt P25095); assay: Assay D: AII pressor response during conjugate infusion (systemic AII antagonism); type: in vivo; conditions: SHR, 10 mg/hr infusion, AII bolus 100 ng/kg, control day 31 ± 4
T2 construct: from tissue; host or cells: whole animal: spontaneously hypertensive rat (SHR), systemic vasculature
T2 sequence (P25095 1-359): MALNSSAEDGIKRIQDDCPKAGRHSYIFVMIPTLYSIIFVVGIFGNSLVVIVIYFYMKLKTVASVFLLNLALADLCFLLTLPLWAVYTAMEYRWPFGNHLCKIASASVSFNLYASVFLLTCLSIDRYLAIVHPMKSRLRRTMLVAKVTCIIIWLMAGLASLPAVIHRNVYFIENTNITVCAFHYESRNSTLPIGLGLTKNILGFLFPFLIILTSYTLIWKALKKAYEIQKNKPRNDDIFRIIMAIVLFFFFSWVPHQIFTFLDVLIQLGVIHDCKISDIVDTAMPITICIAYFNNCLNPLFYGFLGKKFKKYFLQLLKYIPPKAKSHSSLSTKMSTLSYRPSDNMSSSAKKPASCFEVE
Protocol: as §1

[5] = tested on: AII pressor response; assay: Assay C: In Vivo Intraduodenal Pressor Assay Response for AII Antagonists; parameters: species or system Sprague-Dawley rats
Protocol: Assay C: In Vivo Intraduodenal Pressor Assay Response for AII Antagonists
Male Sprague-Dawley rats weighing 225–300-grams were anesthetized with Inactin (100 mg/kg, i.p.) and catheters were implanted into the trachea, femoral artery, femoral vein and duodenum. Arterial pressure was recorded from the femoral artery catheter on a Gould chart recorder (Gould, Cleveland, Ohio). The femoral vein catheter was used for injections of angiotensin II, mecamylamine and atropine. The tracheal catheter allow for airway patency, and the duodenal catheter was used for intraduodenal (i.d.) administration of test compounds. After surgery, the rats were allowed to equilibrate for 30 minutes. Mecamylamine (3 mg/kg, 0.3 ml/kg) and atropine (400 ug/kg, 0.3 ml/kg) were then given i.v. to produce ganglion blockade. These compounds were administered every 90 minutes throughout the test procedure. Angiotensin II was given in bolus does i.v. (30 ng/kg in saline with 0.5% bovine serum albumin, 0.1 ml/kg) every 10 minutes three times or until the increase in arterial pressure produced was within 3 mmHg for two consecutive AII injections. The last two AII injections were averaged and were taken as the control AII pressor response. […] Angiotensin II injections were then given 5, 10, 20, 30, 45, 60, 75, 90, and 120 minutes after administration of the test compound and response of arterial pressure was monitored. The response to AII was calculated as percent of the control response and then the percent inhibition is calculated as 100 minus the percent control response. Duration of action of a test compound was defined as the time from peak percent inhibition to 50% of peak. One compound at one dose was tested in each rat. Each test compound was tested in two rats and the values for the two rats were averaged.

Compound: CCCCc1nc(C(OC)OC)n(Cc2ccc(-c3ccccc3-c3nnn[nH]3)cc2)n1 (single isomer, unassigned) [Example 23, 5-[4′-[[3-butyl-5-(dimethoxymethyl)-1H-1,2,4-triazol-1-yl]methyl][1,1′-biphenyl]-2-yl]-1H-tetrazole]
- IC50 [1]: 430 nM
- melting point: 152.5 to 153.5 °C

Compound: CCCCCCCCc1nc(CCCC)nn1Cc1ccc(-c2ccccc2-c2nnn[nH]2)cc1 (single isomer, unassigned) [Example 28, 5-[4′-[(3-butyl-5-octyl-1H-1,2,4-triazol-1-yl)methyl][1,1′-biphenyl]-2-yl]-1H-tetrazole]
- IC50 [1]: 570 nM
- melting point: 136.5 to 138 °C

Compound: CCCCc1nc(C2CCCCC2)nn1Cc1ccc(-c2ccccc2-c2nnn[nH]2)cc1 [Example 66, 5-[4′-[(5-butyl-3-cyclohexyl-1H-1,2,4-triazol-1-yl)methyl][1,1′-biphenyl]-2-yl]-1H-tetrazole]
- melting point: 125 to 127 °C

Compound: CCCCc1nc(-c2ccccc2)nn1Cc1ccc(-c2ccccc2-c2nnn[nH]2)cc1 (single isomer, unassigned) [Example 21, 5-[4′-[(3-phenyl-5-butyl-1H-1,2,4-triazol-1-yl)methyl](1,1′-biphenyl)-2-yl]-1H-tetrazole]
- IC50 [1]: 87 nM
- melting point: 113 °C (dec.)

Compound: CCCCc1nc(CCc2ccccc2)nn1Cc1ccc(-c2ccccc2-c2nnn[nH]2)cc1 (single isomer, unassigned) [Example 26]
- Assay B pA2 [2]: 9.66
- IC50 [1]: 3.2 nM
- melting point: 156 to 157.2 °C

Compound: CCCCc1nc(C2CCCCC2)n(Cc2ccc(-c3ccccc3-c3nnn[nH]3)cc2)n1 [Example 65, 5-[4′-[(3-butyl-5-cyclohexyl-1H-1,2,4-triazol-1-yl)methyl][1,1′-biphenyl]-2-yl]-1H-tetrazole]
- melting point: 157.5 to 159.5 °C

Compound: CCCCc1nc(-c2ccccc2)n(Cc2ccc(-c3ccccc3-c3nnn[nH]3)cc2)n1 (single isomer, unassigned) [Example 22, 5-[4′-[(3-butyl-5-phenyl-1H-1,2,4-triazol-1-yl)methyl](1,1′-biphenyl)-2-yl]-1H-tetrazole]
- Assay B pA2 [2]: 6.46
- IC50 [1]: 460 nM
- melting point: 205 °C (dec.)

Compound: CCCCc1nc(CCCC)n(Cc2ccc(-c3ccccc3C(=O)NNC(=O)CCC(NC(C)=O)C(=O)O)cc2)n1 (centres unmarked) [Ex. #18 Conjugate, N-acetylglutamic acid, 5-[[4′-[(3,5-dibutyl-1H-1,2,4-triazol-1-yl)methyl][1,1′-biphenyl]-2-yl]]carbonylhydrazide]
- MAP (mean arterial pressure) ([3]; day 1, control day 183 ± 5, ± SD): 159 ± 7 mm Hg
- Heart Rate ([3]; day 1, control day 352 ± 9, ± SD): 395 ± 21 Beats/min.
- MAP (mean arterial pressure) ([3]; day 2, control day 183 ± 5): 155 ± 4 mm Hg
- Heart Rate ([3]; day 2, control day 352 ± 9): 352 ± 12 Beats/min.
- MAP (mean arterial pressure) ([3]; day 3, control day 183 ± 5): 154 ± 6 mm Hg
- Heart Rate ([3]; day 3, control day 352 ± 9): 344 ± 22 Beats/min.
- MAP (mean arterial pressure) ([3]; day 4, control day 183 ± 5): 166 ± 9 mm Hg
- Heart Rate ([3]; day 4, control day 352 ± 9): 374 ± 20 Beats/min.
- AII Pressor Response ([4]; day 1, ± SD): 30 ± 6
- AII Pressor Response ([4]; day 3): 29 ± 5
- AII Pressor Response ([4]; day 4): 25 ± 3

More lines, main results first:

- melting point: 150.5 to 152.5 °C
Compound: CCCCc1nc(C(=O)CCC)nn1Cc1ccc(-c2ccccc2-c2nnn[nH]2)cc1 [Example 30]

- IC50 [1]: 16 nM
- melting point: 170 to 170.5 °C
Compound: CCCCc1nc(C)nn1Cc1ccc(-c2ccccc2-c2nnn[nH]2)cc1 (single isomer, unassigned) [Example 32, 5-[4′-[(5-butyl-3-methyl-1H-1,2,4-triazol-1-yl)methyl][1,1′-biphenyl]-2-yl]-1H-tetrazole]

- IC50 [1]: 5.4 nM
Compound: CCCCc1nc(CN)nn1Cc1ccc(-c2ccccc2-c2nnn[nH]2)cc1 [Example 3, 5-[4′-[(3-aminomethyl-5-butyl-1H-1,2,4-triazol-1-yl)methyl][1,1′-biphenyl]-2-yl]-1H-tetrazole]
- Kb [2]: 2 nM
- Assay C Duration ([5]; 10 mg/kg intragastrically): >180 min
- Assay C Duration ([5]; 30 mg/kg intragastrically): 200^+ min.
- inhibition at 10 mg/kg ([5]; Rattus norvegicus, po, 10 mg/kg intragastrically): 50%
- inhibition at 30 mg/kg ([5]; Rattus norvegicus, po, 30 mg/kg intragastrically): 100%

- IC50 [1]: 84 nM
Compound: CCCCc1nc(CC(=O)O)nn1Cc1ccc(-c2ccccc2-c2nnn[nH]2)cc1 [Example 7, 5-[4′-[(5-butyl-3-carboxymethyl-1H-1,2,4-triazol-1-yl)methyl][1,1′-biphenyl]-2-yl]-1H-tetrazole]
- Kb [2]: 9.77 nM
- Assay C Duration ([5]; 30 mg/kg intraduodenally): 130 min
- inhibition at 30 mg/kg ([5]; Rattus norvegicus, intraduodenal, 30 mg/kg intraduodenally): 90%
